Reference: ChEMBL document CHEMBL4304757, “Synthetic heterocyclic candidates as promising α-glucosidase inhibitors: An overview” (Eur J Med Chem, 2019)

Assays:
Alpha glucosidase [1] = target: T1, Alpha glucosidase (Homo sapiens, UniProt O43451+P10253+P14410+Q2M2H8); test: Inhibition of alpha-glucosidase (unknown origin) using p-nitrophenyl-alpha-d-glucopyranoside as substrate preincubated for 5 mins followed by substrate addition measured after 30 mins; type: protein assay
[2] = Inhibition of yeast alpha-glucosidase; set-up: species or system Saccharomyces cerevisiae
Alpha glucosidase [3] = target: T1, Alpha glucosidase; test: Inhibition of alpha-glucosidase (unknown origin) using pNPG as substrate preincubated for 10 mins followed by substrate addition measured after 30 mins; type: protein assay
Alpha glucosidase [4] = target: T1, Alpha glucosidase; test: Inhibition of alpha-glucosidase (unknown origin) using p-nitro phenyl glucopyranoside as substrate preincubated for 5 mins followed by substrate addition measured after 30 mins; type: protein assay
Alpha glucosidase [5] = target: T1, Alpha glucosidase; test: Inhibition of alpha-glucosidase (unknown origin) using p-nitrophenyl-alpha-d-glucopyranoside as substrate preincubated for 15 mins followed by substrate addition measured after 30 mins by spectrophotometric analysis; type: protein assay

Structure (SMILES): Cc1cs/c(=N\C(=O)c2cc3ccccc3oc2=O)n1-c1cc(Cl)c(Cl)cc1Cl
- IC50 (Alpha glucosidase [1]): 0.1 to 0.15 µM

Structure (SMILES): CC(C)(C)c1ccc(COc2cccc(-c3cc(=O)c4ccccc4o3)c2)cc1
- IC50 [2]: 1.2 to 88 µM

Structure (SMILES): O=c1cc(-c2cccc(OCc3ccc([N+](=O)[O-])cc3)c2)oc2ccccc12
- IC50 [2]: 1.2 to 88 µM

Structure (SMILES): O=C(N/N=C/c1cc(O)cc(O)c1)c1cc2ccccc2[nH]1
- IC50 (Alpha glucosidase [3]): 2.3 to 226 µM

Structure (SMILES): N#Cc1cccc(COc2cccc(-c3cc(=O)c4ccccc4o3)c2)c1
- IC50 [2]: 1.2 to 88 µM

Structure (SMILES): Cc1cc2c(c(=O)[nH]1)C(=O)O/C2=C\c1cc(Br)cs1
- IC50 [2]: 0.24 µM

Structure (SMILES): Cc1cs/c(=N\C(=O)c2ccco2)n1-c1cc(Cl)c(Cl)cc1Cl
- IC50 (Alpha glucosidase [1]): 0.1 to 0.15 µM

Structure (SMILES): O=C(N/N=C/c1ccc(O)c(O)c1)c1cc2ccccc2[nH]1
- IC50 (Alpha glucosidase [3]): 2.3 to 226 µM

Structure (SMILES): CN(C)c1ccc(C(Nc2ccc(-c3ccc(NC(c4ccc(N(C)C)cc4)n4nc(-c5cc(=O)oc6ccccc56)oc4=S)cc3)cc2)n2nc(-c3cc4ccccc4oc3=O)oc2=S)cc1 (centres undefined)
- IC50 (Alpha glucosidase [4]): 0.07 to 0.76 µM

Structure (SMILES): O=C(N/N=C/c1ccccc1O)c1cc2ccccc2[nH]1
- IC50 (Alpha glucosidase [3]): 2.3 to 226 µM

Structure (SMILES): Cc1cc2c(c(=O)[nH]1)C(=O)O/C2=C\c1ccccc1C(F)(F)F
- IC50 [2]: 1 to 53 µM

Structure (SMILES): COc1ccc(-n2c(-c3c(-c4ccc(Cl)cc4)[nH]c4ccc(Cl)cc34)nc(-c3ccccc3)c2-c2ccccc2)cc1
- IC50 (Alpha glucosidase [3]): 8.3 to 98 µM

Structure (SMILES): O=c1cc(-c2nn(C(Nc3ccc(NC(c4ccc(Cl)cc4Cl)n4nc(-c5cc6ccccc6oc5=O)oc4=S)cc3)c3ccc(Cl)cc3Cl)c(=S)o2)c2ccccc2o1 (centres undefined)
- IC50 (Alpha glucosidase [4]): 0.07 to 0.76 µM

Structure (SMILES): CN(C)c1ccc(C(Nc2ccc(Oc3ccc(NC(c4ccc(N(C)C)cc4)n4nc(-c5cc6ccccc6oc5=O)oc4=S)cc3)cc2)n2nc(-c3cc4ccccc4oc3=O)oc2=S)cc1 (centres undefined)
- IC50 (Alpha glucosidase [4]): 0.07 to 0.76 µM

Structure (SMILES): Brc1ccc(-n2c(-c3c(-c4cccc(Br)c4)[nH]c4ccccc34)nc(-c3ccccc3)c2-c2ccccc2)cc1
- IC50 (Alpha glucosidase [3]): 8.3 to 98 µM

Structure (SMILES): COc1cccc(C(Nc2ccc(NC(c3cccc(OC)c3)n3nc(-c4cc(=O)oc5ccccc45)oc3=S)cc2)n2nc(-c3cc4ccccc4oc3=O)oc2=S)c1 (centres undefined)
- IC50 (Alpha glucosidase [4]): 0.07 to 0.76 µM

Structure (SMILES): Cc1cc2c(c(=O)[nH]1)C(=O)O/C2=C\c1cc(-c2ccccc2)cs1
- IC50 [2]: 8.3 µM

Structure (SMILES): Cc1cc2c(c(=O)[nH]1)C(=O)O/C2=C\c1ccc(F)c(F)c1
- IC50 [2]: 1 µM

Structure (SMILES): COc1ccc(-n2c(-c3c(-c4cccc(Br)c4)[nH]c4ccccc34)nc(-c3ccccc3)c2-c2ccccc2)cc1
- IC50 (Alpha glucosidase [3]): 8.3 to 98 µM

Structure (SMILES): O=c1cc(-c2nn(C(Nc3ccc(-c4ccc(NC(c5ccc([N+](=O)[O-])cc5)n5nc(-c6cc7ccccc7oc6=O)oc5=S)cc4)cc3)c3ccc([N+](=O)[O-])cc3)c(=S)o2)c2ccccc2o1 (centres undefined)
- IC50 (Alpha glucosidase [4]): 0.07 to 0.76 µM

Structure (SMILES): COc1cccc(C(Nc2ccc(-c3ccc(NC(c4cccc(OC)c4)n4nc(-c5cc(=O)oc6ccccc56)oc4=S)cc3)cc2)n2nc(-c3cc4ccccc4oc3=O)oc2=S)c1 (centres undefined)
- IC50 (Alpha glucosidase [4]): 0.07 to 0.76 µM

Structure (SMILES): O=c1oc2ccccc2cc1-c1nn(C(Nc2ccc(Oc3ccc(NC(c4ccc(Br)cc4)n4nc(-c5cc6ccccc6oc5=O)oc4=S)cc3)cc2)c2ccc(Br)cc2)c(=S)o1 (centres undefined)
- IC50 (Alpha glucosidase [4]): 0.07 to 0.76 µM

Structure (SMILES): COc1cc(/C=N/NC(=O)c2cc3ccccc3[nH]2)ccc1O
- IC50 (Alpha glucosidase [3]): 2.3 to 226 µM

Structure (SMILES): Cc1cc2c(c(=O)[nH]1)C(=O)O/C2=C\c1ccc(Br)cc1
- IC50 [2]: 1 to 53 µM

Structure (SMILES): O=c1cc(-c2nn(C(Nc3ccc(-c4ccc(NC(c5ccc(Cl)cc5)n5nc(-c6cc7ccccc7oc6=O)oc5=S)cc4)cc3)c3ccc(Cl)cc3)c(=S)o2)c2ccccc2o1 (centres undefined)
- IC50 (Alpha glucosidase [4]): 0.07 to 0.76 µM

Structure (SMILES): Fc1cccc(CSc2nc(-c3ccc(Br)cc3)cc(-c3ccc(Br)cc3)n2)c1
- IC50 (Alpha glucosidase [5]): 19 to 38 µM

Structure (SMILES): O=c1cc(-c2nn(C(Nc3ccc(NC(c4cccc(Br)c4)n4nc(-c5cc6ccccc6oc5=O)oc4=S)cc3)c3cccc(Br)c3)c(=S)o2)c2ccccc2o1 (centres undefined)
- IC50 (Alpha glucosidase [4]): 0.07 to 0.76 µM

Structure (SMILES): COc1ccc(/C=N/NC(=O)c2cc3ccccc3[nH]2)c(I)c1O
- IC50 (Alpha glucosidase [3]): 2.3 to 226 µM

Structure (SMILES): FC(F)(F)c1ccc(-c2[nH]c3ccccc3c2-c2nc(-c3ccccc3)c(-c3ccccc3)n2-c2ccccc2)cc1
- IC50 (Alpha glucosidase [3]): 8.3 to 98 µM

Structure (SMILES): Cc1cc2c(c(=O)[nH]1)C(=O)O/C2=C\c1nccn1C
- IC50 [2]: 0.9 µM

Structure (SMILES): Clc1ccc(Cn2cc(CSc3nc4cc(Cl)ccc4s3)nn2)cc1
- IC50 (Alpha glucosidase [5]): 20 to 61 µM

Structure (SMILES): Clc1cccc(-c2[nH]c3ccccc3c2-c2nc(-c3ccccc3)c(-c3ccccc3)n2-c2ccccc2)c1
- IC50 (Alpha glucosidase [3]): 8.3 to 98 µM

Structure (SMILES): Cc1cc2c(c(=O)[nH]1)C(=O)O/C2=C\c1cc(-c2ccnc(N3CCN(C(=O)OC(C)(C)C)CC3)c2)cs1
- IC50 [2]: 8.3 to 86 µM

Structure (SMILES): Cc1ccc(-c2cc(-c3ccc(Br)cc3)nc(SCc3ccc(Cl)cc3)n2)cc1
- IC50 (Alpha glucosidase [5]): 19 to 38 µM

Structure (SMILES): O=C(N/N=C/c1ccc(O)cc1)c1cc2ccccc2[nH]1
- IC50 (Alpha glucosidase [3]): 2.3 to 226 µM

Structure (SMILES): Clc1cc(Cl)cc(Cn2cc(CSc3nc4cc(Cl)ccc4s3)nn2)c1
- IC50 (Alpha glucosidase [5]): 20 to 61 µM

Structure (SMILES): Cc1ccc(C(Nc2ccc(NC(c3ccc(C)cc3)n3nc(-c4cc(=O)oc5ccccc45)oc3=S)cc2)n2nc(-c3cc4ccccc4oc3=O)oc2=S)cc1 (centres undefined)
- IC50 (Alpha glucosidase [4]): 0.07 to 0.76 µM

Structure (SMILES): O=c1cc(-c2nn(C(Nc3ccc(-c4ccc(NC(c5cccc(Cl)c5)n5nc(-c6cc7ccccc7oc6=O)oc5=S)cc4)cc3)c3cccc(Cl)c3)c(=S)o2)c2ccccc2o1 (centres undefined)
- IC50 (Alpha glucosidase [4]): 0.07 to 0.76 µM

Structure (SMILES): O=C(N/N=C/c1ccc(Cl)cc1)c1cc2ccccc2[nH]1
- IC50 (Alpha glucosidase [3]): 2.3 to 226 µM
